The target in assay [1] is Serine/threonine-protein kinase 26 (Homo sapiens, UniProt Q9P289). Description: Selectivity interaction (Upstate Kinase Profiler service (Millipore)) EUB0000056c STK26. The following applies: at 1 µM.
The target in assay [2] is Tyrosine-protein kinase CSK (Homo sapiens) (UniProt P41240). To be noted: at 10 µM.
Assay [3] addresses T1, Ephrin type-A receptor 6 (Homo sapiens) (UniProt Q9UF33).
T1 sequence (whole entry): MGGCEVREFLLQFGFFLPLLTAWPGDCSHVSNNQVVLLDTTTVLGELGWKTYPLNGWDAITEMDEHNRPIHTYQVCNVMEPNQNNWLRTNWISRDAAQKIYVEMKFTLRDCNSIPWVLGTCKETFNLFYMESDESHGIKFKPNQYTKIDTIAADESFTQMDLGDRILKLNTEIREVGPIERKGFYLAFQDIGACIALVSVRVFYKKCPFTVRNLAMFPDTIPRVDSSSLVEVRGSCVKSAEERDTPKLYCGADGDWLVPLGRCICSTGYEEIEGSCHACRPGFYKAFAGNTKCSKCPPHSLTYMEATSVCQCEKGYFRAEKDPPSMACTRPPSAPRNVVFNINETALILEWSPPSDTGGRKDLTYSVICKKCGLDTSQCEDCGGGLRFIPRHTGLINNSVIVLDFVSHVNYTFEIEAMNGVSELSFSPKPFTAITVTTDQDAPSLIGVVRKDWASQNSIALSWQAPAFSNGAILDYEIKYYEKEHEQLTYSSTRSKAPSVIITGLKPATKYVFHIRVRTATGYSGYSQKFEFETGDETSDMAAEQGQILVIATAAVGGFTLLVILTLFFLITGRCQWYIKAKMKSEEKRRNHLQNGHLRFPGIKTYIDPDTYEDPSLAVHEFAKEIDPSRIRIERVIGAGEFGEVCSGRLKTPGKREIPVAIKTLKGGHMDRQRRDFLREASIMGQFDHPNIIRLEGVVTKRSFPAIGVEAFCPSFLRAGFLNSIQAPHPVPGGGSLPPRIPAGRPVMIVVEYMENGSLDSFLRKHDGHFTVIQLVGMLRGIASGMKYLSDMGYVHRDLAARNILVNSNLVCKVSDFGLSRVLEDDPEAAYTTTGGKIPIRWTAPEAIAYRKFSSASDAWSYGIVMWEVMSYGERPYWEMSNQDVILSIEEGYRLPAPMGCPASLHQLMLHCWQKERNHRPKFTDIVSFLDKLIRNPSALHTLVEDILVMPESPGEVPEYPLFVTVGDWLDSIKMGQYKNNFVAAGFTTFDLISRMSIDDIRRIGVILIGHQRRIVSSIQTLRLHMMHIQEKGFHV
Description: Selectivity interaction (KinomeScan (DiscoverX)) EUB0001049a EPHA6. The following applies: at 1 µM.

For assay [4], the target named is RAC-gamma serine/threonine-protein kinase (Homo sapiens, UniProt Q9Y243). Description: Selectivity interaction (KinomeScan (DiscoverX)) EUB0000045b AKT3.
Chain of RAC-gamma serine/threonine-protein kinase (Q9Y243 whole entry): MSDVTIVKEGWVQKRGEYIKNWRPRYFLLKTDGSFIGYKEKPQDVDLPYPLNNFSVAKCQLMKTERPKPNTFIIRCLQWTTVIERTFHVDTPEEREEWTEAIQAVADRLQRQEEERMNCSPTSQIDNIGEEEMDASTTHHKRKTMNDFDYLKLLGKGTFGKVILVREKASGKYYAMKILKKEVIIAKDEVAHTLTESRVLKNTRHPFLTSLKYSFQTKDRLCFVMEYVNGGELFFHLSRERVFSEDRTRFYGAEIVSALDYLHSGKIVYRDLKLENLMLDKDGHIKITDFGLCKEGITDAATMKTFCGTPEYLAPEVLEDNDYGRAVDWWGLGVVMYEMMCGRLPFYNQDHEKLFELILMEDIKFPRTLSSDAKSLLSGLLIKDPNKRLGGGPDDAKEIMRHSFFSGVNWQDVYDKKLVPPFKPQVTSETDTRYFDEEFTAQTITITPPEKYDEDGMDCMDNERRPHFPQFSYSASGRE
The target in assay [5] is T2, Receptor-interacting serine/threonine-protein kinase 4 (Homo sapiens) (UniProt P57078).
T2 sequence (whole entry): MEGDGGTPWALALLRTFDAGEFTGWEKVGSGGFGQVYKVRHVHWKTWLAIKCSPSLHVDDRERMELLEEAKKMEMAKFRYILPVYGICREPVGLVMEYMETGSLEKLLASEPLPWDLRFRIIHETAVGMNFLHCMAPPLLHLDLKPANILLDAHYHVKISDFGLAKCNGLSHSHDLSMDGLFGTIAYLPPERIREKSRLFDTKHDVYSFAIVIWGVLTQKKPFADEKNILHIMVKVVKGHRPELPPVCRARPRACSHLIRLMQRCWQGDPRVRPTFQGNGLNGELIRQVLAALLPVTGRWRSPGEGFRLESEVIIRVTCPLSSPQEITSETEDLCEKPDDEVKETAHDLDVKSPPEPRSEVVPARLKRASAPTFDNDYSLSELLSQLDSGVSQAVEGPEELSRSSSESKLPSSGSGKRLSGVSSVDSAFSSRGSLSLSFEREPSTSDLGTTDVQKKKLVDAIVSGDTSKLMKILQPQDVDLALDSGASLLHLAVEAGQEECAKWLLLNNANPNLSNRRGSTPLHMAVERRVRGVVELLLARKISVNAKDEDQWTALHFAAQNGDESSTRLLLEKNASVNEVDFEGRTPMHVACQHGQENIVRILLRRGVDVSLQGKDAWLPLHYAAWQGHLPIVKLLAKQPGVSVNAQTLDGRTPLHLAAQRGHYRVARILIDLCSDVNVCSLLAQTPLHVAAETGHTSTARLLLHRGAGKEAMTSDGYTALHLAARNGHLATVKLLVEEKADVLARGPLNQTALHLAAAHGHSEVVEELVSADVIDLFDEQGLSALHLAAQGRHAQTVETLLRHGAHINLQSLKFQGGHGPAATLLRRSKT
The assay is described as follows: Selectivity interaction (KinomeScan (DiscoverX)) EUB0000666a RIPK4. To be noted: at 10 µM.

In assay [6] the target is T3, Dual specificity tyrosine-phosphorylation-regulated kinase 2 (Homo sapiens) (UniProt Q92630).
T3 sequence (whole entry): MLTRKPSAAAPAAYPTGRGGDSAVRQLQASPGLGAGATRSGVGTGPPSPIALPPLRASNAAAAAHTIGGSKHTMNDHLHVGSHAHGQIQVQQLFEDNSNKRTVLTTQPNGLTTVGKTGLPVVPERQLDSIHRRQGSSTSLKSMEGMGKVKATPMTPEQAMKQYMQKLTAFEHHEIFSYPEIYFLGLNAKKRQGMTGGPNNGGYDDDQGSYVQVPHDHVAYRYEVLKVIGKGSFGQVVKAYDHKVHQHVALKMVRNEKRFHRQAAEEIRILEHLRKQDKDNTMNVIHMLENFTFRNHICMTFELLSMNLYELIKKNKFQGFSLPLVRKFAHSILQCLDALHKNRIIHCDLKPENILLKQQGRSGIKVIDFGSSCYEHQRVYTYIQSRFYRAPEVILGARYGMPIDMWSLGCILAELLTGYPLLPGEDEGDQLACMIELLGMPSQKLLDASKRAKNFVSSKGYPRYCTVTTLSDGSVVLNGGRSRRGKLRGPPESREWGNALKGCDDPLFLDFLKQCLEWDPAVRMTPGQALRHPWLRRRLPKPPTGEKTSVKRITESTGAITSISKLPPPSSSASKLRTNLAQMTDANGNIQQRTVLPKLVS
Description: Selectivity interaction (LanthaScreen Eu Kinase Binding Assay) EUB0001632a DYRK2. To be noted: at 10 µM.

Assay [7] deals with Tyrosine-protein kinase JAK1 (Homo sapiens, UniProt P23458). The assay is described as follows: Selectivity interaction (ActivX KiNativ screen (ex vivo kinase selectivity in human PBMCs)) EUB0001619a JAK1. It is filed as cell-based. To be noted: PBMC, at 1 µM.
Chain of Tyrosine-protein kinase JAK1 (P23458 whole entry): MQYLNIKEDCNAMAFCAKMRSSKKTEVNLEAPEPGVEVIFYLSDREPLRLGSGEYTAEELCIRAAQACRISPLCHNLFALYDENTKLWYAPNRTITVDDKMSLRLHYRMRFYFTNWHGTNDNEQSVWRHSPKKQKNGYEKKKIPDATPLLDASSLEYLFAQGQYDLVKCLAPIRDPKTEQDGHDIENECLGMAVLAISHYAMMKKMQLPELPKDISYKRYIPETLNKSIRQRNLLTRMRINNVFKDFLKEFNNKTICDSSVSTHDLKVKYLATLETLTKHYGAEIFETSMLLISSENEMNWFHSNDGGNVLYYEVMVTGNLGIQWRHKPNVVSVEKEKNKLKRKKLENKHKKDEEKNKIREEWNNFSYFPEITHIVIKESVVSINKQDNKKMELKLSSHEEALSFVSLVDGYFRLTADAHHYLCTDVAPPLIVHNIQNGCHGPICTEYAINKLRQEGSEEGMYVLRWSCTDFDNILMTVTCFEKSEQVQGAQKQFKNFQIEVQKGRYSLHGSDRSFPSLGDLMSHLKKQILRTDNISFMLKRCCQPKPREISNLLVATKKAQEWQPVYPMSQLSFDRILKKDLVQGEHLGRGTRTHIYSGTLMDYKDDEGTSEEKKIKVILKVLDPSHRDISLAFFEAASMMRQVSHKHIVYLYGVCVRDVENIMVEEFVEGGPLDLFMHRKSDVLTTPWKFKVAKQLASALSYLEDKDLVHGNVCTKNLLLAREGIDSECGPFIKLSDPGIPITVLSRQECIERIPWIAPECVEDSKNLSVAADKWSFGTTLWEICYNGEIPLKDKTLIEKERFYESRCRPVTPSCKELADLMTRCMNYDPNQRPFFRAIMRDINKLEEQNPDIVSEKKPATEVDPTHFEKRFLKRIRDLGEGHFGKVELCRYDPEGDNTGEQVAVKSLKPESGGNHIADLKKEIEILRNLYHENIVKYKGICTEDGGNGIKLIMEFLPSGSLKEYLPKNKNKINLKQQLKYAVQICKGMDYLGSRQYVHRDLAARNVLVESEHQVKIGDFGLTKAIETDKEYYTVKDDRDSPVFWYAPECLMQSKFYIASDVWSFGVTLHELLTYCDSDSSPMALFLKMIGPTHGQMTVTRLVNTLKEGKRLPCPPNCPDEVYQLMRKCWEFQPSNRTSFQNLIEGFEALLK

Chain of Tyrosine-protein kinase CSK (Homo sapiens) (P41240 2-450 limits assumed): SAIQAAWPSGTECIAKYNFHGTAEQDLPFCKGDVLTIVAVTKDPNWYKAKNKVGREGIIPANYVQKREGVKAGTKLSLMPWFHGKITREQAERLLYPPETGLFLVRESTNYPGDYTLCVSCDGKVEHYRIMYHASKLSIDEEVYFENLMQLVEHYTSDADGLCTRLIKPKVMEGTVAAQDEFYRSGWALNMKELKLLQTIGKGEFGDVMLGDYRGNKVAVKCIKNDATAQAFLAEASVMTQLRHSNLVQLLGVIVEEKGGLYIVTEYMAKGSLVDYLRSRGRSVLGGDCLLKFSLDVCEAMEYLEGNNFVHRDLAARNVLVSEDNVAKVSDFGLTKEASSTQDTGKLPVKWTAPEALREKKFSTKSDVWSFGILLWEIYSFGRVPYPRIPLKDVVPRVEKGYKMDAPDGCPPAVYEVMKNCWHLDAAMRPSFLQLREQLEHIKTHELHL
Chain of Serine/threonine-protein kinase 26 (Q9P289 2-416 limits assumed): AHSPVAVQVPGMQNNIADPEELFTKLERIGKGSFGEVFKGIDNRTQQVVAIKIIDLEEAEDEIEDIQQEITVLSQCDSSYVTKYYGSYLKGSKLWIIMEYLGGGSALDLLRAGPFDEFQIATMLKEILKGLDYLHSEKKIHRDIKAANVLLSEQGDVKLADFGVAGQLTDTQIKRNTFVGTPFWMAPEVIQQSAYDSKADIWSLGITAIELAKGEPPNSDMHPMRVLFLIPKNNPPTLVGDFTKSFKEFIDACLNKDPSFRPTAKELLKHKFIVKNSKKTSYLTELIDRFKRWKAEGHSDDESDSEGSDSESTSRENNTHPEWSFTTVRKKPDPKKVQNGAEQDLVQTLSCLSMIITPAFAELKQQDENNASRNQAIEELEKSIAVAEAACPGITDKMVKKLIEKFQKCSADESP

On to `Cc1ccc(-c2ccc3c(ccc4sc5c(c43)NC[C@@H](C)NC5=O)n2)cn1`, for which the % of inhibition in assay [1] is 15%.

In the case of `Cc1cc([C@@H](C)Nc2ccccc2C(=O)O)c2nc(N3CCOCC3)cc(=O)n2c1` [AZD-6482], the % of control in assay [2] is 100%.

In turn, `COc1cc(Nc2nc(C)cc(-c3cnn4nc(OC)ccc34)n2)cc(C(F)(F)F)c1` yielded a % of control in assay [3] of 95%.

`C=CC(=O)Nc1cc(-n2c(=O)ccc3cnc4ccc(-c5ccc(NS(C)(=O)=O)cc5)cc4c32)ccc1C`: the % of control in assay [4] (at 1 µM) was 75%; in assay [4] (at 10 µM) it was 100%.

In assay [5], `O=C(NOC[C@H](O)CO)c1ccc(F)c(F)c1Nc1ccc(I)cc1F` returned a % of control of 100%.

Consider `Cn1cc(-n2cnc3c(NCc4nc5cc(Cl)c(Cl)cc5[nH]4)nc(N4CCOCC4)nc32)cn1`, for which the % of inhibition in assay [6] is -265%.

As to `N#Cc1cccc(-c2c[nH]c3ncnc(N4CCOCC4)c23)c1`, in assay [7], the % of inhibition came to 5%.

(Values after ChEMBL document CHEMBL5465560, “Selectivity Literature for EUbOPEN Chemogenomic Library” (2024).)
